Where “and” joins values, the source holds several entries; their conditions need not be identical. Equal entries are not always repeated.
Tests used:
SOD = conditions: read-out: SOD inhibition IC50; via copper chelation; cited from earlier work
[1] = tested on: normal human cells (Wi-38); experiment: MTT cytotoxicity screening on normal human cells; type: cell-based; conditions: for EC100 (safe concentration at 100% cell viability): Wi-38 normal human lung fibroblasts, MTT, 72 h, mean ± SEM
[2] = tested on: human colon cancer (Caco-2) cells; experiment: MTT anticancer screening on human colon cancer Caco-2 cells; type: cell-based; conditions: for IC50: Caco-2, MTT, 72 h, mean ± SEM; for Morphological changes of Caco-2 cells: 72 h treatment, phase contrast microscopy
Caco-2 cells = experiment: Determination of cellular ROS in Caco-2; type: cell-based, human; conditions: Caco-2 cells treated with anticancer IC50 dose
ALDH1A = experiment: Inhibition of ALDH1A activity in treated Caco-2 cells; type: cell-based, human; conditions: Caco-2 cells treated with anticancer IC50 dose, 72 h
[3] = tested on: glutathione peroxidase (GPx); experiment: Inhibition of glutathione peroxidase activity in treated Caco-2 cells; type: cell-based, human; conditions: Caco-2 cells treated with anticancer IC50 dose, 72 h
Cu/Zn SOD = Cu/Zn SOD (Homo sapiens, UniProt P00441); experiment: Inhibition of intracellular SOD activity in treated Caco-2 cells; type: cell-based; conditions: Caco-2 cells treated with anticancer IC50 dose, 72 h
Chain of Cu/Zn SOD (P00441 whole entry): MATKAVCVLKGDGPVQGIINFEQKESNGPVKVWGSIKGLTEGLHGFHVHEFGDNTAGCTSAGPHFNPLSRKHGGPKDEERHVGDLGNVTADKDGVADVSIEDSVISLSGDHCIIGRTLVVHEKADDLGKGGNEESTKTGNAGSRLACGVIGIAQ

Row | Structure (SMILES) | EC100 (safe concentration at 100% cell viability) [1] | IC50 ([2]; Homo sapiens, Caco-2, 72 h) [µM] | also measured
1 | C[N+](C)(C)CCO.C[N+](C)(C)CCO.[SH-].[SH-].[S]=[Mo]=[S] [ATN-224, bis-choline tetrathiomolybdate] | – | – | IC50 (SOD): 0.33 µM
2 | O=C1CSC(=O)N1 [Compound 1, 2,4-thiazolidinedione] | 22.05 µM and 22.047 ± 0.434 µM | 12.1 ± 3.25 | –
3 | O=C1N=C(O)SC1=Cc1ccccc1 [Compound 3a, 5-Benzylidenethiazolidine-2,4-dione] | 19.679 ± 3.105 µM | 74.6 ± 8.31 | –
4 | O=C1NC(=O)C(=Cc2ccc([N+](=O)[O-])cc2)S1 [Compound 3c, 5-(4-Nitrobenzylidene)thiazolidine-2,4-dione] | 6.0653 ± 0.127 µM | 4.71 | Morphological changes of Caco-2 cells [2]: severe shrinkage and collapse; IC50 [2]: 4.72 ± 0.602 µM
5 | CN(C)c1ccc(C=C2SC(O)=NC2=O)cc1 [Compound 3d, 5-(4-(Dimethylamino)benzylidene)thiazolidine-2,4-dione] | 25.35 µM and 25.345 ± 0.655 µM | 8.95 ± 0.631 | –
6 | O=C1NC(=O)C(=Cc2ccc(O)cc2)S1 [Compound 3e, 5-(4-Hydroxybenzylidene)thiazolidine-2,4-dione] | 6.727 ± 0.040 µM | 8.48 ± 0.599 | –
7 | C=CCN1C(=O)SC(=Cc2ccccc2)C1=O [Compound 4a, 3-Allyl-5-benzylidenethiazolidine-2,4-dione] | 58.92 µM and 58.916 ± 10.698 µM | 12 ± 1.36 | EC100 fold relative to doxorubicin (safety) ([1]; Wi-38, EC100 compound vs DOX): approximately 47.5 folds
8 | C=CCN1C(=O)SC(=Cc2cccc(Cl)c2)C1=O [Compound 4b, 3-Allyl-5-(3-chlorobenzylidene)thiazolidine-2,4-dione] | 9.902 ± 2.360 µM | 13.8 ± 0.789 | –
9 | C=CCN1C(=O)SC(=Cc2ccc([N+](=O)[O-])cc2)C1=O [Compound 4c, 3-Allyl-5-(4-nitrobenzylidene)thiazolidine-2,4-dione] | 7.078 ± 0.136 µM | 6.52 ± 0.077 | –
10 | C=CCN1C(=O)SC(=Cc2ccc(N(C)C)cc2)C1=O [Compound 4d, 3-Allyl-5-(4-(dimethylamino)benzylidene)thiazolidine-2,4-dione] | – | 7.062 ± 0.005 | –
11 | C=CCOc1ccc(C=C2SC(=O)N(CC=C)C2=O)cc1 [Compound 4e, 3-Allyl-5-(4-(allyloxy)benzylidene)thiazolidine-2,4-dione] | – | 12.2 ± 3.12 | –
12 | CCOC(=O)CN1C(=O)SC(=Cc2ccccc2)C1=O [Compound 5a, Ethyl-2-(5-benzylidene-2,4-dioxothiazolidin-3-yl)acetate] | – | 8.2 ± 0.135 | –
13 | CCOC(=O)CN1C(=O)SC(=Cc2ccc([N+](=O)[O-])cc2)C1=O [Compound 5c, Ethyl-2-(5-(4-nitrobenzylidene)-2,4-dioxothiazolidin-3-yl)acetate] | 8.573 ± 0.409 µM | 6.67 ± 0.118 | –
14 | CCOC(=O)CN1C(=O)SC(=Cc2ccc(N(C)C)cc2)C1=O [Compound 5d, Ethyl-2-(5-(4-(dimethylamino)benzylidene)-2,4-dioxothiazolidin-3-yl)acetate] | 16.179 ± 6.066 µM | 8.24 ± 2.59 | –
15 | CCOC(=O)COc1ccc(C=C2SC(=O)N(CC(=O)OCC)C2=O)cc1 [Compound 5e, Ethyl-2-(5-(4-(2-ethoxy-2-oxoethoxy)benzylidene)-2,4-dioxothiazolidin-3-yl)acetate] | 8.417 ± 0.004 µM | 8.57 ± 0.942 | –
16 | O=C1SC(=Cc2ccccc2)C(=O)N1CCCBr [Compound 6a, 5-Benzylidene-3-(3-bromopropyl)thiazolidine-2,4-dione] | 18.938 ± 0.975 µM | 4.73 | Morphological changes of Caco-2 cells [2]: severe shrinkage and collapse; IC50 [2]: 4.739 ± 0.021 µM
17 | O=C1SC(=Cc2ccc([N+](=O)[O-])cc2)C(=O)N1CCCBr [Compound 6c, 3-(3-Bromopropyl)-5-(4-nitrobenzylidene)thiazolidine-2,4-dione] | 13.424 ± 1.130 µM | 10.4 ± 0.499 | –
18 | CN(C)c1ccc(C=C2SC(=O)N(CCCBr)C2=O)cc1 [Compound 6d, 3-(3-Bromopropyl)-5-(4-(dimethylamino)benzylidene)thiazolidine-2,4-dione] | 14.776 ± 1.125 µM | 7.94 ± 0.599 | –
19 | O=C1SC(=Cc2ccc(OCCCBr)cc2)C(=O)N1CCCBr [Compound 6e, 5-(4-(3-Bromopropoxy)benzylidene)-3-(3-bromopropyl)thiazolidine-2,4-dione] | 10.683 ± 2.384 µM | 4.41 | Morphological changes of Caco-2 cells [2]: severe shrinkage and collapse; IC50 [2]: 4.41 ± 0.546 µM
20 | O=C1SC(=Cc2ccccc2)C(=O)N1CCCO [Compound 7a, 5-Benzylidene-3-(3-hydroxypropyl)thiazolidine-2,4-dione] | 18.923 ± 1.959 µM | 10.2 ± 0.77 | –
21 | O=C1SC(=Cc2ccc([N+](=O)[O-])cc2)C(=O)N1CCCO [Compound 7c, 3-(3-Hydroxypropyl)-5-(4-nitrobenzylidene)thiazolidine-2,4-dione] | 11.439 ± 0.927 µM | 6.77 ± 0.096 | –
22 | CN(C)c1ccc(C=C2SC(=O)N(CCCO)C2=O)cc1 [Compound 7d, 5-(4-(Dimethylamino)benzylidene)-3-(3-hydroxypropyl)thiazolidine-2,4-dione] | 12.073 ± 3.577 µM | 7.118 ± 0.01 | –
23 | COc1cccc2c1C(=O)c1c(O)c3c(c(O)c1C2=O)C[C@@](O)(C(=O)CO)C[C@@H]3O[C@H]1C[C@H](N)[C@H](O)[C@H](C)O1 [DOX, doxorubicin] | 1.239 ± 0.285 µM | 19.9 | Fold increment in cellular ROS level relative to untreated cells (Caco-2 cells): 4.065 folds; Inhibition of ALDH1A activity (ALDH1A): about 4.800%; IC50 [2]: 19.9 ± 2.37 µM; Inhibition of GPx activity [3]: 40.31%; Inhibition of intracellular SOD activity (Cu/Zn SOD): 30.78%

— article PMC9219103 (ACS Omega, 2022)
